Test results: ChEMBL document CHEMBL1201861, “Genomics of Drug Sensitity in Cancer screening data, Wellcome Trust Sanger Institute”

Assays:
SIMA = assay: cells; type: functional, cell-based, Homo sapiens; details: Homo sapiens, SIMA;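 further: growth inhibition of SIMA cells, measured with a cell viability readout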
Description: SANGER: Inhibition of human SIMA cell growth in a cell viability assay.

RT-112 = assay: cells; type: functional, cell-based; details: Homo sapiens
Description: SANGER: Inhibition of human RT-112 cell growth in a cell viability assay.

UO-31 = assay: cells; type: functional, cell-based; details: Homo sapiens
Description: SANGER: Inhibition of human U031 cell growth in a cell viability assay.

SKG-IIIa = assay: cells; type: functional, cell-based; details: Homo sapiens;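 further: cell growth inhibition, read out with a cell viability assay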
Description: SANGER: Inhibition of human SKG-IIIa cell growth in a cell viability assay.

NCI-H1623 = assay: cells; type: functional, cell-based; details: Homo sapiens;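 further: cell viability assay used as the read-out for growth inhibition of NCI-H1623 cells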
Description: SANGER: Inhibition of human NCI-H1623 cell growth in a cell viability assay.

LOUCY = assay: cells; type: functional, cell-based, Homo sapiens; details: Homo sapiens, LOUCY;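 further: growth inhibition of human LOUCY cells, read out with a cell viability assay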
Description: SANGER: Inhibition of human LOUCY cell growth in a cell viability assay.

PF-382 = assay: cells; type: functional, cell-based, Homo sapiens; details: Homo sapiens, PF-382
Description: SANGER: Inhibition of human PF-382 cell growth in a cell viability assay.

NCI-H1882 = assay: cells; type: functional, cell-based, Homo sapiens; details: Homo sapiens, NCI-H1882;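 further: growth inhibition of the cell line, determined with a viability assay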
Description: SANGER: Inhibition of human NCI-H1882 cell growth in a cell viability assay.

KOSC-2 = assay: cells; type: functional, cell-based; details: Homo sapiens;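 further: growth inhibition of KOSC-2 cells, read out by a cell viability assay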
Description: SANGER: Inhibition of human KOSC-2 cell growth in a cell viability assay.

TCC-SUP = assay: cells; type: functional, cell-based; details: Homo sapiens;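 further: growth inhibition of TCC-SUP cells, read out with a cell viability assay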
Description: SANGER: Inhibition of human TCCSUP cell growth in a cell viability assay.

Huh-7 = assay: cells; type: functional, cell-based; details: Homo sapiens;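 further: HuH-7 cell growth inhibition, read out with a cell viability assay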
Description: SANGER: Inhibition of human HuH-7 cell growth in a cell viability assay.

ME-180 = assay: cells; type: functional, cell-based; details: Homo sapiens;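 further: cell viability assay measuring growth inhibition of ME-180 cells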
Description: SANGER: Inhibition of human ME-180 cell growth in a cell viability assay.

Hs-578T = assay: cells; type: functional, cell-based; details: Homo sapiens
Description: SANGER: Inhibition of human Hs-578-T cell growth in a cell viability assay.

NCI-H2141 = assay: cells; type: functional, cell-based, Homo sapiens; details: Homo sapiens, NCI-H2141;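 further: growth inhibition of human NCI-H2141 cells, read out with a cell viability assay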
Description: SANGER: Inhibition of human NCI-H2141 cell growth in a cell viability assay.

NCI-H650 = assay: cells; type: functional, cell-based; details: Homo sapiens;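 further: growth inhibition of NCI-H650 cells, read out by a viability assay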
Description: SANGER: Inhibition of human NCI-H650 cell growth in a cell viability assay.

HCC1569 = assay: cells; type: functional, cell-based; details: Homo sapiens;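 further: growth inhibition of human HCC1569 cells, read out with a cell viability assay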
Description: SANGER: Inhibition of human HCC1569 cell growth in a cell viability assay.

COLO-680N = assay: cells; type: functional, cell-based; details: Homo sapiens;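 further: cell viability assay used to measure inhibition of COLO-680N cell growth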
Description: SANGER: Inhibition of human COLO-680N cell growth in a cell viability assay.

SW756 = assay: cells; type: functional, cell-based; details: Homo sapiens;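 further: growth inhibition of human SW756 cells, read out with a cell viability assay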
Description: SANGER: Inhibition of human SW756 cell growth in a cell viability assay.

HT-29 = assay: cells; type: functional, cell-based; details: Homo sapiens;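 further: growth inhibition of human HT-29 cells, read out by a cell viability assay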
Description: SANGER: Inhibition of human HT-29 cell growth in a cell viability assay.

BHT-101 = assay: cells; type: functional, cell-based; details: Homo sapiens
Description: SANGER: Inhibition of human BHT-101 cell growth in a cell viability assay.

SCLC-21H = assay: cells; type: functional, cell-based, Homo sapiens; details: Homo sapiens, SCLC-21H;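 further: growth inhibition of cultured human SCLC-21H cells, read out with a cell viability assay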
Description: SANGER: Inhibition of human SCLC-21H cell growth in a cell viability assay.

UACC-62 = assay: cells; type: functional, cell-based; details: Homo sapiens;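 further: growth inhibition of human UACC-62 cells, read out by a cell viability assay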
Description: SANGER: Inhibition of human UACC-62 cell growth in a cell viability assay.

Panc1005 = assay: cells; type: functional, cell-based; details: Homo sapiens;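 further: growth inhibition of human PANC-10-05 cells, measured by a cell viability assay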
Description: SANGER: Inhibition of human PANC-10-05 cell growth in a cell viability assay.

HSC-4 = assay: cells; type: functional, cell-based; details: Homo sapiens;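 further: growth inhibition of human HSC-4 cells, read out with a cell viability assay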
Description: SANGER: Inhibition of human HSC-4 cell growth in a cell viability assay.

UACC-893 = assay: cells; type: functional, cell-based; details: Homo sapiens
Description: SANGER: Inhibition of human UACC-893 cell growth in a cell viability assay.

HuO9 = assay: cells; type: functional, cell-based; details: Homo sapiens;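 further: growth inhibition of HuO9 cells, read out with a cell viability assay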
Description: SANGER: Inhibition of human HuO9 cell growth in a cell viability assay.

HCC 2998 = assay: cells; type: functional, cell-based; details: Homo sapiens;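 further: growth inhibition of human HCC2998 cells, measured with a cell viability read-out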
Description: SANGER: Inhibition of human HCC2998 cell growth in a cell viability assay.

KYSE-410 = assay: cells; type: functional, cell-based; details: Homo sapiens;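 further: growth inhibition of KYSE-410 cells, measured through a cell viability readout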
Description: SANGER: Inhibition of human KYSE-410 cell growth in a cell viability assay.

NCI-H1993 = assay: cells; type: functional, cell-based; details: Homo sapiens;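 further: growth inhibition of the cancer cell line, assessed with a cell viability assay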
Description: SANGER: Inhibition of human NCI-H1993 cell growth in a cell viability assay.

CPC-N = assay: cells; type: functional, cell-based, Homo sapiens; details: Homo sapiens, CPC-N;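 further: growth inhibition of CPC-N cells, with a cell viability assay as the readout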
Description: SANGER: Inhibition of human CPC-N cell growth in a cell viability assay.

AN3-CA = assay: cells; type: functional, cell-based; details: Homo sapiens;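 further: growth inhibition of human AN3-CA cells measured by a cell viability assay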
Description: SANGER: Inhibition of human AN3-CA cell growth in a cell viability assay.

HEC-1 = assay: cells; type: functional, cell-based; details: Homo sapiens;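 further: growth inhibition of the cell line, read out with a cell viability assay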
Description: SANGER: Inhibition of human HEC-1 cell growth in a cell viability assay.

CP66-MEL = assay: cells; type: functional, cell-based; details: Homo sapiens;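 further: growth inhibition of CP66-MEL cells determined in a cell viability assay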
Description: SANGER: Inhibition of human CP66-MEL cell growth in a cell viability assay.

BXPC-3 = assay: cells; type: functional, cell-based; details: Homo sapiens;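 further: growth inhibition of human BxPC-3 cells, read out by a cell viability assay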
Description: SANGER: Inhibition of human BxPC-3 cell growth in a cell viability assay.

MDA-MB-231 = assay: cells; type: functional, cell-based; details: Homo sapiens
Description: SANGER: Inhibition of human MDA-MB-231 cell growth in a cell viability assay.

T-24 = assay: cells; type: functional, cell-based; details: Homo sapiens;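 further: growth inhibition of T-24 cells, read out with a cell viability assay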
Description: SANGER: Inhibition of human T-24 cell growth in a cell viability assay.

NCI-H2196 = assay: cells; type: functional, cell-based, Homo sapiens; details: Homo sapiens, NCI-H2196; read-out: IC50;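 further: cell viability assay used as the readout of growth inhibition in NCI-H2196 cells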
Description: SANGER: Inhibition of human NCI-H2196 cell growth in a cell viability assay.

M059J = assay: cells; type: functional, cell-based; details: Homo sapiens;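 further: growth inhibition of M059J cells, read out with a cell viability assay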
Description: SANGER: Inhibition of human M059J cell growth in a cell viability assay.

ECC4 = assay: cells; type: functional, cell-based, Homo sapiens; details: Homo sapiens, ECC4;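 further: growth inhibition of ECC4 cells, read out with a cell viability assay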
Description: SANGER: Inhibition of human ECC4 cell growth in a cell viability assay.

YKG-1 = assay: cells; type: functional, cell-based; details: Homo sapiens;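 further: cell growth inhibition, read out with a viability assay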
Description: SANGER: Inhibition of human YKG-1 cell growth in a cell viability assay.

LC-1F = assay: cells; type: functional, cell-based, Homo sapiens; details: Homo sapiens, LC-1F;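 further: growth inhibition of human LC-1F cells, read out with a cell viability assay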
Description: SANGER: Inhibition of human LC-1F cell growth in a cell viability assay.

SK-MEL-30 = assay: cells; type: functional, cell-based; details: Homo sapiens;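 further: growth inhibition of SK-MEL-30 cells, determined with a cell viability assay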
Description: SANGER: Inhibition of human SK-MEL-30 cell growth in a cell viability assay.

SCC-3 = assay: cells; type: functional, cell-based, Homo sapiens; details: Homo sapiens, SCC-3;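 further: cell viability assay measuring inhibition of SCC-3 cell growth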
Description: SANGER: Inhibition of human SCC-3 cell growth in a cell viability assay.

NCI-H460 = assay: cells; type: functional, cell-based; details: Homo sapiens;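 further: cell viability assay scoring growth inhibition of human NCI-H460 cells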
Description: SANGER: Inhibition of human NCI-H460 cell growth in a cell viability assay.

NB12 = assay: cells; type: functional, cell-based; details: Homo sapiens;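 further: growth inhibition of human NB12 cells, read out by a cell viability assay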
Description: SANGER: Inhibition of human NB12 cell growth in a cell viability assay.

WM-115 = assay: cells; type: functional, cell-based; details: Homo sapiens
Description: SANGER: Inhibition of human WM-115 cell growth in a cell viability assay.

SNU-423 = assay: cells; type: functional, cell-based; details: Homo sapiens
Description: SANGER: Inhibition of human SNU-423 cell growth in a cell viability assay.

JEG-3 = assay: cells; type: functional, cell-based; details: Homo sapiens;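 further: growth inhibition of human JEG-3 cells, read out with a cell viability assay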
Description: SANGER: Inhibition of human JEG-3 cell growth in a cell viability assay.

TUR = assay: cells; type: functional, cell-based, Homo sapiens; details: Homo sapiens, TUR;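 further: growth inhibition of human TUR cells, read out with a cell viability assay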
Description: SANGER: Inhibition of human TUR cell growth in a cell viability assay.

CHP-126 = assay: cells; type: functional, cell-based, Homo sapiens; details: Homo sapiens, CHP-126
Description: SANGER: Inhibition of human CHP-126 cell growth in a cell viability assay.

SW1710 = assay: cells; type: functional, cell-based; details: Homo sapiens;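 further: growth inhibition of SW1710 cells, determined with a cell viability assay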
Description: SANGER: Inhibition of human SW1710 cell growth in a cell viability assay.

LC4-1 = assay: cells; type: functional, cell-based, Homo sapiens; details: Homo sapiens, LC4-1;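 further: growth inhibition of LC4-1 cells, read out with a cell viability assay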
Description: SANGER: Inhibition of human LC4-1 cell growth in a cell viability assay.

NCI-H661 = assay: cells; type: functional, cell-based; details: Homo sapiens;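 further: cell viability assay read-out, IC50 being the concentration that inhibits growth of the cells by half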
Description: SANGER: Inhibition of human NCI-H661 cell growth in a cell viability assay.

EB-3 = assay: cells; type: functional, cell-based, Homo sapiens; details: Homo sapiens, EB-3;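 further: human EB-3 cells, growth inhibition read out via a cell viability assay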
Description: SANGER: Inhibition of human EB-3 cell growth in a cell viability assay.

CAL-27 = assay: cells; type: functional, cell-based; details: Homo sapiens;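 further: Viability-based readout, IC50 reflecting inhibition of CAL-27 cell growth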
Description: SANGER: Inhibition of human CAL-27 cell growth in a cell viability assay.

MDA-MB-415 = assay: cells; type: functional, cell-based; details: Homo sapiens
ST486 = assay: SANGER: Inhibition of human ST486 cell growth in a cell viability assay.; type: functional, cell-based; details: Homo sapiens, ST486
NY = assay: cells; type: functional, cell-based; details: Homo sapiens
Description: SANGER: Inhibition of human NY cell growth in a cell viability assay.

HT55 = assay: cells; type: functional, cell-based; details: Homo sapiens;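 further: cell viability readout measuring growth inhibition of human HT55 cells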
Description: SANGER: Inhibition of human HT55 cell growth in a cell viability assay.

C3A = assay: cells; type: functional, cell-based; details: Homo sapiens;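 further: growth inhibition of C3A human cells, quantified with a cell viability readout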
Description: SANGER: Inhibition of human C3A cell growth in a cell viability assay.

O=S(=O)(O)c1ccc2cc(/N=N/c3cc(S(=O)(=O)O)c4cccnc4c3O)ccc2c1
IC50 (SIMA): > 16 µM
IC50 (RT-112): > 16 µM
IC50 (UO-31): 13.6 µM
IC50 (SKG-IIIa): > 16 µM
IC50 (NCI-H1623): > 16 µM
IC50 (LOUCY): > 16 µM
IC50 (PF-382): > 16 µM
IC50 (NCI-H1882): > 16 µM
IC50 (KOSC-2): > 16 µM
IC50 (TCC-SUP): > 16 µM
IC50 (Huh-7): > 16 µM
IC50 (ME-180): > 16 µM
IC50 (Hs-578T): > 16 µM
IC50 (NCI-H2141): > 16 µM
IC50 (NCI-H650): > 16 µM
IC50 (HCC1569): > 16 µM
IC50 (COLO-680N): > 16 µM
IC50 (SW756): > 16 µM
IC50 (HT-29): > 16 µM
IC50 (BHT-101): > 16 µM
IC50 (SCLC-21H): > 16 µM
IC50 (UACC-62): > 16 µM
IC50 (Panc1005): > 16 µM
IC50 (HSC-4): > 16 µM
IC50 (UACC-893): > 16 µM
IC50 (HuO9): > 16 µM
IC50 (HCC 2998): > 16 µM
IC50 (KYSE-410): > 16 µM
IC50 (NCI-H1993): > 16 µM
IC50 (CPC-N): > 16 µM
IC50 (AN3-CA): 14.1 µM
IC50 (HEC-1): > 16 µM
IC50 (CP66-MEL): > 16 µM
IC50 (BXPC-3): > 16 µM
IC50 (MDA-MB-231): > 16 µM
IC50 (T-24): > 16 µM
IC50 (NCI-H2196): > 16 µM
IC50 (M059J): 14.9 µM
IC50 (ECC4): > 16 µM
IC50 (YKG-1): > 16 µM
IC50 (LC-1F): > 16 µM
IC50 (SK-MEL-30): > 16 µM
IC50 (SCC-3): > 16 µM
IC50 (NCI-H460): > 16 µM
IC50 (NB12): > 16 µM
IC50 (WM-115): > 16 µM
IC50 (SNU-423): > 16 µM
IC50 (JEG-3): > 16 µM
IC50 (TUR): > 16 µM
IC50 (CHP-126): > 16 µM
IC50 (SW1710): > 16 µM
IC50 (LC4-1): > 16 µM
IC50 (NCI-H661): > 16 µM
IC50 (EB-3): > 16 µM
IC50 (CAL-27): > 16 µM
IC50 (MDA-MB-415): > 16 µM
IC50 (ST486): > 16 µM
IC50 (NY): > 16 µM
IC50 (HT55): > 16 µM
IC50 (C3A): > 16 µM
